The test system of series [1] is neonatal fibroblast cells. The series can be described thus: Cell proliferation assay (coulter counter). The class given is cell-based. The settings on record: HB 500 nM, 5 μM, 25 μM; benzoquinone 25, 50, 100 μM; 24 hours.
Method: A cell proliferation assay was also performed on neonatal fibroblast cells. The concentrations of HB tested were 500 nM, 5 μM, and 25 μM. HB was also tested in combination with benzoquinone at a concentrations of 25 μM, 50 μM, and 100 μM. Melanoma cells were seeded at 40 k cells per well and were treated for 24 hours. The cells were trypsinized and quantified using a coulter counter.
Another series deals with Melanoma cells. As to the kind of experiment: Cell proliferation assay (live cell count) of building block combinations. The format is cell-based. As to the method: This set of experiments used a cell proliferation assay to assess the effect of combining different building block molecules on cell proliferation.
The first study examined the effect of combining 4-Hydroxy-Benzoate with Benzoquinone. Cells were incubated for 48 hours, after which a cell count was performed for the live cells. Each test group was compared to the control, and each combination groups were compared to Benzoquinone control. The compounds were statistically analyzed for the addition of Benzoquinone.
Additional studies were performed testing additional molar ratios. For the first test 4-Hydroxybenzoic were tested at concentrations of 500 nM, 1 μM, and 50 μM. These concentrations were tested in combination with 2,3-Dimethoxy-5-methyl-p-benzoquinone (Benzo). The concentration of Benzo tested were 25 μM, 50 μM, and 100 μM. Melanoma cells were grown to 80% confluency and seeded in 6 well plates at a concentration of 40K cells per well. The cells were treated with CoQ10, 4-Hydroxybenzoate, Benzo, and a combination of 4-Hydroxybenzoate/Benzo.
A T-test was performed with p<0.05 as statistically significant.

Another series relates to Caspase-3. As to the kind of experiment: Western blot of Caspase-3 in Skmel-28 cells treated with CoQ10 building block components. The format is cell-based. As to the method: (§1) Skmel-28 melanoma cells were cultured in DMEM/F12 supplemented with 5% Fetal Bovine Serum (FBS) and 1× final concentration of Antibiotics. The cells were grown to 85% confluency and treated with building block components for 3, 6, 12 and 24 hours. The cells were then pelleted and a Western blot analysis was performed.
(§2) In the Western Blot Analysis, the cells were pelleted in cold PBS, lysed, and the protein levels were quantified using a BCA protein assay. The whole cell lysate was loaded in a 4% loading 12% running Tris-HCl gel. The proteins were then transferred to a nitrocellulose paper then blocked with a 5% milk Tris-buffered solution for 1 hour. The proteins were then exposed to primary antibodies (Bcl-2 and Caspase-3) overnight. The nitrocellulose paper was then exposed to Pico Chemilluminescent for 5 min and the protein expression was recorded. After exposure, actin was quantified using the same method. Using ImageJ the levels of protein expression were quantified. A t-Test was used to analyze for statistical significance.
In general terms: In western blotting, separated proteins are transferred to a membrane and probed.

In the next series the test system is Bcl-2. As to the kind of experiment: Western blot of Bcl-2 in Skmel-28 cells treated with CoQ10 building block components. The format is cell-based. As to the method: as §1, §2
In another series the test system is HDFa cells. As to the kind of experiment: SeaHorse XF analyzer OCR and ECAR. The class given is cell-based, human. The source says: Environmental influencers (e.g., MIMs or Epi-shifters) may also be identified by changes in cellular energetics. One example of the measurement of cellular energetics are the real-time measures of the consumption of molecular oxygen and/or the change in pH of the media of a cell culture. For example, the ability of a potential epi-shifter to modulate the metabolic state of a cell may be analyzed using, for example, the XF24 Analyzer (Seahorse, Inc.). This technology allows for real time detection of oxygen and pH changes in a monolayer of cells in order to evaluate the bioenergetics of a cell microenvironment. The XF24 Analyzer measures and compares the rates of oxygen consumption (OCR), which is a measure of aerobic metabolism, and extracellular acidification (ECAR), which is a measure of glycolysis, both key indicators of cellular energetics.
(SeaHorse Biosciences Inc, North Billerica, Mass.).
In this experiment, the OCR and extracellular acidification rate (ECAR) in normal cells lines were obtained in the presence and absence of CoQ10 to determine baseline values. It was observed that in its native nutrient environment, the basal OCR rates in normal cells lines are different, and are usually a function of the physiological roles of the cells in the body.
FIGS. 29 and 30 describe the OCR in HDFa and HASMC cells grown in physiologically normal glucose (about 4.6 mM) and high glucose (hyperglycemic) conditions.
Table 53, below, describes the ECAR values (mpH/min) in HDFa cells in the presence or absence of CoQ10 under normoxic and hypoxic conditions at 5.5 mM and 22 mM glucose.

Setting [2] is: 500 nM, 1 μM, 25 μM and 50 μM, all time points.

Consider `O=C(O)c1ccc(O)cc1` [4-Hydroxybenzoate, 4-hydroxy-benzoate], for which the “reduction in fibroblast cells” value in series [1] is given as “did not show a significant reduction”. Besides, in the series with Melanoma cells (48 hours), the “cell number compared to the control” value is listed as “significant decrease in cell number”. Also, in the series with Melanoma cells (HB 500 nM, 1 μM, 50 μM, p<0.05), the cell proliferation entry is recorded as “significant decrease in cell proliferation”.

In the case of `CC(=O)SCCNC(=O)CCNC(=O)[C@H](O)C(C)(C)COP(=O)(O)OP(=O)(O)OC[C@H]1O[C@@H](n2cnc3c(N)ncnc32)[C@H](O)[C@@H]1OP(=O)(O)O` [Acetyl-CoA], the Caspase-3 expression entry in the series with Caspase-3 (setting [2]) was “no significant observed”. Moreover, the Bcl-2 expression result in the series with Bcl-2 (setting [2]) is on record as “no significant observed reduction”.

Take `N[C@H](Cc1ccc(O)cc1)C(=O)O` [D-Tyrosine]: the Caspase-3 expression entry in the series on Caspase-3 (5 μM, 12 hour) was “increase”.

Consider `N[C@@H](Cc1ccc(O)cc1)C(=O)O` [L-Tyrosine], for which the Bcl-2 expression entry in the series on Bcl-2 (500 μM and 5 μM, 24 hours) was “statistically significant decrease”.

With `C[C@@](O)(CCO)CC(=O)O` [Mevalonic Acid, mevalonic acid], the Caspase-3 expression entry in the series with Caspase-3 (setting [2]) was “no significant”. The Bcl-2 expression result with Bcl-2 (setting [2]) is given as “no significant reduction”.

Consider `COc1cc(C(O)C(=O)O)ccc1O` (stereo not drawn) [VMA, 3-methoxy-4-hydroxymandelate], for which, in the series on Bcl-2 (100 nM, 250 nM, 500 nM, 1 μM, 25 μM, 50 μM and 100 μM), the “apoptotic effect (Bcl-2, Caspase-3)” value is reported as “no statistically significant apoptotic effect”.

As to `COC1=C(OC)C(=O)C(C/C=C(\C)CC/C=C(\C)CC/C=C(\C)CC/C=C(\C)CC/C=C(\C)CC/C=C(\C)CC/C=C(\C)CC/C=C(\C)CC/C=C(\C)CCC=C(C)C)=C(C)C1=O` [compound 31510], the ECAR is 5 mpH/min in the series with HDFa cells (50 μM, Hypoxia (5.5 mM)); 6 mpH/min with HDFa cells (50 μM, Hypoxia (22 mM)); 6 mpH/min in the series on HDFa cells (50 μM, Normoxia (5.5 mM)); 5 mpH/min with HDFa cells (50 μM, Normoxia (22 mM)); 5 mpH/min in the series on HDFa cells (100 μM, Hypoxia (5.5 mM)); 8 mpH/min with HDFa cells (100 μM, Hypoxia (22 mM)). In addition, the ECAR in the series on HDFa cells (100 μM, Normoxia (5.5 mM)) was 6 mpH/min; with HDFa cells (100 μM, Normoxia (22 mM)) it was 5 mpH/min.
